According to patent publication US6303751A, “Human metabotropic glutamate receptor and related DNA compounds” (Eli Lilly and Company, priority 1995, dated 2001):

Legend:
[1] = tested on: HSmGluR1 receptor (human metabotropic glutamate receptor) in AV12/pRS121 cells; assay: PI hydrolysis in AV12/pRS121 cells (PI assay); type: cell-based; details: 10 μM, one hour at 37° C.
Method: (§1) PI hydrolysis in clonal cell lines of AV12/pRS121 cells was measured in response to glutamate agonists as a functional assay for metabotropic glutamate receptor activity according to Schoepp, 11 TiPS 508 (1990).
(§2) Twenty-four-well tissue-culture vessels were seeded with approximately 250,000 cells per well in D-MEM (in the absence of glutamic acid) which contained […] and 10% dialyzed fetal calf serum. Four microcuries of ^3 H-myoinositol were then added to each well and the cultures were incubated for 48 hours at 37° C. The wells were then rinsed with serum-free medium which contained 10 mM LiCl and 10 mM myoinositol. Some wells were then exposed to medium with glutamate agonists for one hour at 37° C., and some wells were at the same time exposed to medium without glutamate agonists for one hour at 37° C.
(§3) The reactions were terminated by removing the media and adding 0.5 ml acetone-methanol (1:1). The cells were then incubated at 4° C. for 20 minutes. The acetone-methanol solutions were recovered from the wells and were placed into centrifuge tubes. […]
(§4) Labeled phosphoinositides were eluted from the cartridges with 4 ml of a solution which contained: 0.1 M ammonium formate; 0.1 M formic acid and 5 mM sodium tetraborate. […] Scintillation counting fluid (Ready Solv HP) was added to the vials and the radioactivity was determined in a Beckmann Scintillation Counter.

[2] = tested on: control AV12 cells; assay: PI hydrolysis in control AV12 cells (PI assay); type: cell-based; details: quisqualate 10 μM
Method: as §1, §2, §3, §4

## N[C@@H](Cn1oc(=O)[nH]c1=O)C(=O)O [quisqualate]
[1]
  increase in PI hydrolysis over the basal level: 200 to 300%
[2]
  increase in PI hydrolysis over basal levels: No increase
